“Also recorded” adds a separate entry of the source.
Tests used:
Pim1 = Pim1 (Homo sapiens, UniProt P11309); experiment: Kinase assay with purified Pim1 and EDC3 (EDC3 S161 phosphorylation); assay type: biochemical; details: in vitro, FIG. 8
Description: (§1) FIGS. 7A-7I show inhibition of VBT5445 (VBT) on Pim1 and EDC3 binding and phosphorylation. FIG. 7A: In vitro co-precipitation (Co-PPT) assay was performed with recombinant EDC3 and biotinylated Pim1 using Streptavidin beads with increasing concentrations of the Pim inhibitor VBT5445 (VBT). FIG. 7B: Kinase assays were performed with recombinant EDC3 and Pim1 with increasing concentrations of VBT. FIG. 7C: Cell lysates from PC3-LN4 cells cultured with DMSO, 10 μM VBT, 3 μM AZD5363 (AKTi) and the combination for 6 hrs were subjected to western blotting (WB). […] WBs were performed using the indicated antibodies. FIG. 7E: PC3-LN4 cells were seeded into 48 well plate and incubated with either DMSO, VBT, AZD5363 or the combination, for 4.5 days. A real-time imaging system (IncuCyte™) was used to measure cell proliferation using a non-label cell monolayer confluence approach. FIG. 7F-7H: GFP image in PC3 LN4 GFP EDC3 expressing cells treated with PIMi: VBT (5 μM) and VBT (5 μM)+AZD5363 (3 μM) for 6 hrs.
Computer screening followed by surface plasmon resonance (SPR) yielded a lead compound VBT-5445 that can interact with the Pim-1 protein kinase. Enhancer of mRNA Decapping 3 (EDC3) is a substrate of the Pim kinase that regulates the decapping of messenger RNA, and its activity is modulated by Pim mediated phosphorylation. […]

Pim1 and EDC3 binding = Pim1 and EDC3 binding (Homo sapiens, UniProt P11309); experiment: In vitro co-precipitation / co-immunoprecipitation of EDC3 with Pim1; details: VBT-5445 at concentrations higher than 1 μM, listed as VBT 1-34
Sequence of Pim1 and EDC3 binding (P11309 whole entry): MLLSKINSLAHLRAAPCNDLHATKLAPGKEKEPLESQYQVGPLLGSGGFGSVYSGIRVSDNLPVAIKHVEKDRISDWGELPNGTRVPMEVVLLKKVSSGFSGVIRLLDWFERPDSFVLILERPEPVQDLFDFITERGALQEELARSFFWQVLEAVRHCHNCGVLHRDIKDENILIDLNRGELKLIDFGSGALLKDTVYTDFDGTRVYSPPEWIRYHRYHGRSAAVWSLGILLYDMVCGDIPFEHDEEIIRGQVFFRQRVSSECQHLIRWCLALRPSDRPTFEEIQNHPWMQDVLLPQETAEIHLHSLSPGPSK
Description: as §1

PC3-LN4 cells [1] = experiment: Cell growth assay (IncuCyte) in PC3-LN4 prostate cancer cells; assay type: cell-based, human; details: combination with AZD5363 or BKM120
Description: as §1
Cell growth assay: Tumor cells were seeded into 48 well plates (1000 cells/well) and treated with varied agents. The Incucyte real-time imaging system (Incucyte) was used to measure cell proliferation using a non-label cell monolayer confluence approach. The images were captured every 12 h. Graphs were generated using an integrated confluence metric as an alternative for cell numbers. At the end of the study cell growth was visualized by crystal violet staining.

[2] = tested on: T-cell acute lymphoblastic leukemia cell line DU528; experiment: Cell viability (XTT) assay in T-ALL cells; assay type: cell-based; details: 72 h, listed as VBT 1-34
Description: Cell viability (XTT) assay: T-ALL cells were seeded into 96 well plates at a density of 20,000 cells per well and treated with VBT-5445 for 72 h, using DMSO as control. Cell viability was measured using XTT cell proliferation assay (Trevigen Cat #4891-025-K) following the manufacturer's protocol. Briefly, XTT reagent was added to cell culture after the treatment and incubated for 4 h at 37° C. and 5% CO2. The absorbance of the colored formazan product was measured at 450 nm.

PANC1 cells = experiment: Reverse-phase protein array (RPPA) of PANC1 cells, Table 3; assay type: cell-based; details: 6 h treatment, divided by zero-time value, average of triplicate
Description: To further examine how these compounds function to inhibit tumor growth, changes in both a wide variety of phosphoprotein and protein levels using reverse-phase protein arrays (RPPA) were evaluated. […] The values in the RPPA obtained at these two time points were divided by the value at time zero to allow an evaluation of the changes caused by each drug treatment.

PC3-LN4 cells [3] = experiment: Western blotting of PC3-LN4 cell lysates; assay type: cell-based, human; details: PC3-LN4 cells with CRISPR/CAS9 knockout of TSC2 or DEPDC5

Sequence of Pim1 (P11309 whole entry): as above

O=c1c(CNCc2cc(Br)ccn2)cc2ccc(Cl)cc2n1CCOc1ccccc1 [GRG-1-34, 3-((((4-bromopyridin-2-yl)methyl)amino)methyl)-7-chloro-1-(2-phenoxyethyl) quinolin-2 (1H)-one]
inhibition of the ability of Pim to phosphorylate EDC3 (Pim1): inhibit the ability of Pim to phosphorylate EDC3 | co-immunoprecipitation of EDC3 with Pim (Pim1 and EDC3 binding): block the co-immunoprecipitation of EDC3 with Pim; also recorded: blocks co-immunoprecipitation of EDC3 with Pim | prostate cancer (PC3-LN4) growth, in combination with AKT/PI3K inhibitor (PC3-LN4 cells [1]): enhanced | growth of T-acute lymphoblastic leukemia cells [2]: inhibits the growth; also recorded: shows activity | 4EBP1S65, RPPA value after treatment / zero-time value (PANC1 cells): 0.52 | 4EBP1T70, RPPA value after treatment / zero-time value (PANC1 cells): 0.75 | ATMS1981, RPPA value after treatment / zero-time value (PANC1 cells): 0.46 | CICaspase3D175, RPPA value after treatment / zero-time value (PANC1 cells): 1.09 | CofilinS3, RPPA value after treatment / zero-time value (PANC1 cells): 0.46 | CrkIIY221, RPPA value after treatment / zero-time value (PANC1 cells): 1.58 | ERKT202_Y204, RPPA value after treatment / zero-time value (PANC1 cells): 2.39 | FAKY576_577, RPPA value after treatment / zero-time value (PANC1 cells): 0.78 | FKHR-FOX01S256, RPPA value after treatment / zero-time value (PANC1 cells): 0.71 | GSK3a_bS21_9, RPPA value after treatment / zero-time value (PANC1 cells): 1.66 | HistoneH2AXS139, RPPA value after treatment / zero-time value (PANC1 cells): 0.76 | HistoneH3S10, RPPA value after treatment / zero-time value (PANC1 cells): 0.69 | IL-1bcleavedD116, RPPA value after treatment / zero-time value (PANC1 cells): 0.41 | Jak1Y1022_1023, RPPA value after treatment / zero-time value (PANC1 cells): 0.79 | MAPKpTEpY, RPPA value after treatment / zero-time value (PANC1 cells): 1.35 | PDGFRbY751, RPPA value after treatment / zero-time value (PANC1 cells): 7.02 | PP1aT320, RPPA value after treatment / zero-time value (PANC1 cells): 0.47 | PaxillinY118, RPPA value after treatment / zero-time value (PANC1 cells): 1.08 | RetY905, RPPA value after treatment / zero-time value (PANC1 cells): 0.77 | S6RibosomalPS235_236, RPPA value after treatment / zero-time value (PANC1 cells): 1.05 | S6RibosomalProtein S240_244, RPPA value after treatment / zero-time value (PANC1 cells): 0.95 | SAPK_JNKT183_Y185, RPPA value after treatment / zero-time value (PANC1 cells): 0.85 | Stat2Y690, RPPA value after treatment / zero-time value (PANC1 cells): 2.89 | Stat3Y705, RPPA value after treatment / zero-time value (PANC1 cells): 1.57 | Tyk2Y1054_1055, RPPA value after treatment / zero-time value (PANC1 cells): 0.39 | VEGFR2Y1175, RPPA value after treatment / zero-time value (PANC1 cells): 0.54 | YAPS127, RPPA value after treatment / zero-time value (PANC1 cells): 0.68 | cAbIY245, RPPA value after treatment / zero-time value (PANC1 cells): 0.87 | cKitY703, RPPA value after treatment / zero-time value (PANC1 cells): 1.8 | p38MAPKT180_Y182, RPPA value after treatment / zero-time value (PANC1 cells): 1.15 | p70S6KS371, RPPA value after treatment / zero-time value (PANC1 cells): 0.62 | p70S6KT389, RPPA value after treatment / zero-time value (PANC1 cells): 0.74 | p90RSKS380, RPPA value after treatment / zero-time value (PANC1 cells): 1.51 | mTORC activity in TSC2 or DEPDC5 KO prostate tumor cells (PC3-LN4 cells [3]): inhibits mTORC
